Laboratory results published in paper PMC8766184, “Molecular Docking, Synthesis, and Tyrosinase Inhibition Activity of Acetophenone Amide: Potential Inhibitor of Melanogenesis” (BioMed Research International, 2022).
Where two headings read alike, the source gives them in different places.

Assays:
mushroom tyrosinase [1] = target: T1, mushroom tyrosinase (Agaricus bisporus, UniProt C7FF04); assay: In vitro mushroom tyrosinase inhibition assay (L-DOPA substrate, dopachrome absorbance); type: biochemical
T1 construct: purchased Sigma Aldrich
Description: In vitro antityrosinase potential was determined following the method previously described with little modifications [33, 34]. Briefly, 140 μL of sodium phosphate buffer, 20 μL (30 U/mL) of the enzyme mushroom tyrosinase, and 20 μL of the tested compound were added in a well of a 96-well microplate. After a preincubation of 10 minutes at room temperature of 20 μL (0.85 mM), the substrate L-DOPA was added followed by an incubation of 20 minutes at the same temperature. Subsequently, the absorbance of the intermediate dopachrome was recorded by using an Opti Max tunable microplate reader (Sunnyvale, USA) at 472 nm. […] The negative inhibitor was a phosphate buffer without an inhibitor.

mushroom tyrosinase [2] = target: T1, mushroom tyrosinase; assay: Mushroom tyrosinase inhibitory kinetics (Lineweaver-Burk and Dixon plots); type: biochemical
Description: Various concentrations of the inhibitor 5c were among 0.00 to 0.013 μM and that of L-DOPA was 0.00 to 0.0064 μM during all kinetic assays. For preincubation and calculations, the same protocol was followed as described in in vitro tyrosinase inhibition assay and continuous monitoring at 30 s interval for 5 minutes after adding the enzyme tyrosinase, and the formation of dopachrome was measured at 475 nm. The enzyme inhibitory action and the kind of inhibition were determined by the Lineweaver-Burk and Dixon plots. 1/V (inverse of velocities) versus 1/[S] (inverse of substrate concentration) mM^−1 were plotted to determine inhibition constant Ki.
The enzyme inhibitory interaction mechanism of 3(a–e) and 5(a–e) with the binding site of mushroom tyrosinase was determined using Michaelis-Menten kinetic studies. […] A striking reduction in the reaction rate in the presence of inhibitors refers to a decrease in the final absorbance in comparison to control without inhibitors. The inhibitory index of all these tested compounds varied depending upon the position of various substituents and classes of compounds [27]. Inhibition kinetics was analyzed by the Lineweaver-Burk and Dixon plots.

T1 sequence (C7FF04 1-392): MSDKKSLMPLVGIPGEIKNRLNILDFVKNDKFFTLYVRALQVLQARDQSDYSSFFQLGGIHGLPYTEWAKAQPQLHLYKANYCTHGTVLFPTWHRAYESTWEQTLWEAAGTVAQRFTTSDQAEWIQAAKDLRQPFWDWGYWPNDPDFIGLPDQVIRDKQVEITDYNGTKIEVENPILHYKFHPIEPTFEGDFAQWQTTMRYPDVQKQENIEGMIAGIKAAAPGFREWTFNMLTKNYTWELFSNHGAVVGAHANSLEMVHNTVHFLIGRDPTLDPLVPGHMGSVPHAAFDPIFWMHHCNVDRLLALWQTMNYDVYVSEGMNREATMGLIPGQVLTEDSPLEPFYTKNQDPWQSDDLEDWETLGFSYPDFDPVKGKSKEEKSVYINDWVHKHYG

SMILES	IC50 (mushroom tyrosinase [1]) [µM]	further results
CC(=O)c1cccc(NC(=O)COC(=O)c2cccc(O)c2)c1 [Compound 3a, 2-(3-acetylphenylamino)-2-oxoethyl-3-hydroxybenzoate]	323 ± 16.9	–
CC(=O)c1cccc(NC(=O)COC(=O)c2ccc(O)cc2)c1 [Compound 3b, 2-(3-acetylphenylamino)-2-oxoethyl-4-hydroxybenzoate]	288 ± 32.2	–
CC(=O)c1cccc(NC(=O)COC(=O)c2ccc(O)cc2O)c1 [Compound 3c, 2-(3-acetylphenylamino)-2-oxoethyl 2,4-dihydroxybenzoate]	27.4 ± 3.6	–
CC(=O)c1cccc(NC(=O)COC(=O)c2ccc(O)c(O)c2)c1 [Compound 3d, 2-(3-acetylphenylamino)-2-oxoethyl 3,4-dihydroxybenzoate]	128 ± 8.5	–
CC(=O)c1cccc(NC(=O)COC(=O)c2cc(O)cc(O)c2)c1 [Compound 3e, 2-(3-acetylphenylamino)-2-oxoethyl 3,5-dihydroxybenzoate]	255 ± 14.2	–
CC(=O)c1cccc(NC(=O)COC(=O)C=Cc2ccccc2)c1 [Compound 5a, 2-(3-acetylphenylamino)-2-oxoethylcinnamate]	46.4 ± 5.8	melting point: 159 to 161 °C
CC(=O)c1cccc(NC(=O)COC(=O)/C=C/c2ccc(O)cc2)c1 [Compound 5b, 2-(3-acetylphenylamino)-2-oxoethyl(E)-3-(4-hydroxyphenyl) acrylate]	309 ± 36.8	–
CC(=O)c1cccc(NC(=O)COC(=O)/C=C/c2ccc(O)cc2O)c1 [Compound 5c, 2-(3-acetylphenylamino)-2-oxoethyl(E)-3-(2,4-dihydroxyphenyl)acrylate]	–	IC50 (mushroom tyrosinase [1]; L-DOPA 0.85 mM substrate, enzyme 30 U/mL, absorbance at 472 nm, read-out: Mushroom tyrosinase inhibition IC50 ± SEM): 0.002 ± 0.0002 µM; Ki (mushroom tyrosinase [2]; Dixon plot, L-DOPA substrate, read-out: dissociation constant (Ki)): 0.0072 µM; type of inhibition (mushroom tyrosinase [2]; Lineweaver-Burk plot, L-DOPA substrate): competitive; reversibility of inhibition (mushroom tyrosinase [2]; remaining enzyme activity vs enzyme concentration at various inhibitor doses, L-DOPA): reversible
CC(=O)c1cccc(NC(=O)COC(=O)/C=C/c2ccc(Cl)cc2)c1 [Compound 5d, 2-(3-acetylphenylamino)-2-oxoethyl(E)-3-(4-chlorophenyl)acrylate]	61.6 ± 11.4	–
